The subject of one data set is B16 melanoma 4A5 cell. Kind of data set: Melanogenesis inhibiting test (theophylline-induced melanine production). Format: cell-based. The settings on record: B16 mouse melanoma 4A5, theophylline 1.0 mmol/L, 3 days culture, N=4; for IC40: B16 melanoma 4A5, 72 h, read-out: Judgment: sample concentration showing the melanogenesis inhibiting ratio of 40% or more. The protocol: As a test for a skin-lightening effect, evaluation of the action of B16 melanoma 4A5 cell on theophylline-induced melanine production was carried out on propyl-phenyl-ether derivatives of the present invention, according to the following procedure. (1) B16 mouse melanoma 4A5 strain was sowed onto a 48-well plate at a cell density of 8.0×10^3 cells/well. (2) Culturing was performed for 24 hours with Dulbecco's Modified Eagle's medium (manufactured by SIGMA. Hereinafter, abbreviated as D-MEM) containing 10% fetal bovine serum (manufactured by Nichirei Biosciences Inc.). […] (3) After culturing for 3 days in the co-existence of a sample, the medium was removed using an aspirator. Then, after distilled water was added, cells were broken by an ultrasonic wave. (4) Thereafter, the amount of protein was determined using BCA protein assay kit (manufactured by Thermo Fisher Scientific Inc.), and the produced amount of melanine was measured by an alkali solubilizing method described below. [Alkali Solubilizing Method] To the cell-destructed solution was added sodium hydroxide so as to give a final concentration of 1 mol/L and the mixture was dissolved by heating (60° C., 30 minutes), then, the absorbance at 450 nm was measured using a micro plate reader. The melanine amount was calculated from a calibration curve made using synthetic melanine (SIGMA) as a standard. The melanine amount per unit protein was calculated by dividing the melanine amount by the protein amount. (5) The melanine production suppressing rate was calculated according to the following formula. Melanine production suppressing rate (%)=[1−(A−B)/(C−B)]×100 [wherein, A represents the melanine amount per unit protein (g/g) in adding a sample, B represents the melanine amount per unit protein (g/g) in the normal group, and C represents the melanine amount per unit protein (g/g) in the control group.] In the above, Normal group is a case of theophylline (−; no addition) and sample (−; no addition), and Control group is a case of theophylline (+; addition) and sample (−; no addition). (6) Determination of Skin-Lightening Effect The amount of a sample required for adjusting the melanogenesis inhibiting ratio to 40% or more was measured, and the effect was evaluated by the following criteria based on the measured amount. The measurement was conducted at N=4 (4 wells per sample). The skin-lightening effect is expressed as described below based on the sample concentration showing the melanogenesis inhibiting ratio of 40% or more. The measurement was conducted at N=4.

Data set [1] can be described thus: Stability test (coloration on storage). The class given is physicochemical. Conditions: for Coloration, 2 weeks after / Coloration, 4 weeks after: 1% in 50% ethanol, pH 6.0 to 8.0, stored at 50° C., total points of 10 panelists. As to the method: Aascorbic acid, kojic acid, hydroquinone and arbutin which are known skin-lightening agents were used as comparative compounds. […] The solutions were placed in 50 mL screw tubes and closely sealed, and stored at 50° C. for 4 weeks. The degrees of coloration of the solution directly after preparation of the test sample, 2 weeks after storage and 4 weeks after storage were evaluated by 10 panelists according to the following criteria. 3: almost no change as compared with directly after preparation 2: colored as compared with directly after preparation 1: intensely colored as compared with directly after preparation The evaluation results of coloration were classified as described below.

Data set [2] concerns Escherichia coli, Pseudomonas aeruginosa, Staphylococcus aureus and Candida albicans. The experiment in a line: Antimicrobial test on SCD agar medium containing the sample. The class given is cell-based. The settings on record: 12 specimens per sample (3.0%, 1.0%, 0.5% x four microorganisms), 30° C., 7 days, visual. The protocol:
The propyl-phenyl-ether derivative of the present invention was evaluated for an antimicrobial test using four bacteria: Escherichia coli, Pseudomonas aeruginosa, Staphylococcus aureus and Candida albicans (use of ATCC strain) according to the following procedure. As a comparative compound, 1,2-pentandiol was used.
(1) Into a test tube containing 1.0 g of Tween 80 (polyoxyethylene sorbitan monooleate) added, 0.3 g, 0.1 g or 0.05 g of various samples were added, and SCD (Soybean Casein Digest) agar medium was added each in an amount of about 10 mL so as to give final concentrations of 3.0%, 1.0% and 0.5%, and stirred thoroughly with Vortex. Thereafter, the sample-containing medium was sterilized by high-pressure steam sterilization (for 15 minutes at 121° C.), cooled down to 45° C., the medium was poured gently onto a petri dish sterilized previously, and spread over the whole petri dish having signage of 4-section on the outer surface of the bottom, and allowed to stand still to solidify the medium. (2) Thereafter, various bacterium solutions of which number of bacteria had been previously regulated to 1.0×10^4 to 5.0×10^4 cfu/mL were inoculated on the sample-containing medium prepared in (1), each one bacterium for one section of the petri dish, each in an amount of 10 μL on four places (three concentrations are applied to four kinds of bacteria for each sample, that is, 12 specimens per sample). (3) These were cultured in a 30° C. thermostat bath for 7 days. (4) The presence or absence of bacteria was determined visually.
The results are classified by the following criteria and shown in Table 4. • The number of specimens confirming bacteria was 10 or more: Δ • The number of specimens confirming bacteria was 6 to 9: ◯ • The number of specimens confirming bacteria was 5 or less: ⊚

Data set [3] concerns Propionibacterium acnes (JCM6415). Kind of data set: Anti-acne test (growth in GAM bouillon medium, OD620). The class given is cell-based. The settings on record: sample final concentration 0.1%, 37° C., anaerobic, 48 hours. As to the method:
Propionibacterium acnes (JCM6415: ATCC strain) was transplanted to GAM bouillon medium (manufactured by Nissui Pharmaceutical Co., Ltd.), and cultured at 37° C. under anaerobic condition for 24 hours. Thereafter, it was diluted with GAM bouillon medium so that the final bacterium concentration was OD620=0.1, and this was used as a test bacterium solution. In examples, the propyl-phenyl-ether derivative was weighed so that the final concentration was 0.1%, dissolved in GAM bouillon medium, then, filter-sterilization was performed. The resultant solution was used as a sample solution. The test bacterium solution was added in an amount of 30 μL and the sample solution was added in an amount of 120 μL to a 96-well microplate (manufactured by Sumitomo Bakelite Co., Ltd.), then, immediately, the micro plate and AnaeroPack-KENKI (manufactured by Mitsubishi Gas Chemical Co., Inc.) were placed into an anaerobic jar (manufactured by Mitsubishi Gas Chemical Co., Inc.), and culture was carried out at 37° C. under anaerobic condition for 48 hours. Thereafter, OD620 was measured by a microplate reader. The same test was conducted using methylparaben, phenoxyethanol and sodium ascorbate as comparative compounds.
The results are classified by the following criteria and shown in Table 5-Table 7. • Δ: OD620 is 0.6 or more • ◯: OD620 is 0.3-0.6 • ⊚: OD620 is 0.3 or less

Bounds are passed on as bounds.

Regarding `Oc1ccc(O)cc1` [Hydroquinone], the IC40 with B16 melanoma 4A5 cell is not below 300 µM. Besides, the “Coloration, 2 weeks after” value in data set [1] is given as “X (X: total points of 10 panelists is 14 or less)”. Besides, in data set [1] (4 weeks), the “Coloration, 4 weeks after” value is given as “X (X: total points of 10 panelists is 14 or less)”.
`CCC(C)c1ccc(OCC(O)CO)cc1` (stereo not shown) [Example 5, 1,2-di-hydroxy-3-(4′-sec-butylphenoxy)propyl]: in the data set with B16 melanoma 4A5 cell, the “Judgment: sample concentration showing the melanogenesis inhibiting ratio of 40% or more” value is recorded as “⊚ (30 to 100 μmol/L: ⊚)”. Besides, the “Judgment: number of specimens confirming bacteria” value (“Judgment: number” for short) in data set [2] is listed as “⊚ (The number of specimens confirming bacteria was 5 or less: ⊚)”. The “Judgment: OD620 after culture” value in data set [3] is listed as “◯ (◯: OD620 is 0.3-0.6)”.
As to `CCCC(O)CO` (stereo not shown) [1,2-pentandiol, reference compound], in data set [2], the “Judgment: number” value was “Δ (The number of specimens confirming bacteria was 10 or more: Δ)”.
Consider `CCCCCCCC(=O)OCC(COc1ccc(C(C)(C)C)cc1)OC(=O)CCCCCCC` (stereo not shown) [Example 7, 1,2-di-octanoyl-3-(4′-tert-butylphenoxy) propyl], for which the “Judgment: sample concentration showing the melanogenesis inhibiting ratio of 40% or more” value in the data set on B16 melanoma 4A5 cell is recorded as “⊚⊚ (≦30 μmol/L: ⊚⊚)”. For the same compound, the “Judgment: number” value in data set [2] is reported as “◯ (The number of specimens confirming bacteria was 6 to 9: ◯)”. Moreover, the “Judgment: OD620 after culture” value in data set [3] was “◯ (◯: OD620 is 0.3-0.6)”.
With `O=C1O[C@H]([C@@H](O)CO)C(O)=C1O` [Ascorbic acid], the IC40 with B16 melanoma 4A5 cell is not below 300 µM. The “Coloration, 2 weeks after” value in data set [1] is listed as “X (X: total points of 10 panelists is 14 or less)”. In addition, the “Coloration, 4 weeks after” value in data set [1] (4 weeks) was “X (X: total points of 10 panelists is 14 or less)”.
Regarding `CCC(C)c1ccccc1OCC(O)CO` (stereo not shown) [Example 6, 1,2-di-hydroxy-3-(2′-sec-butylphenoxy)propyl], the IC40 in the data set with B16 melanoma 4A5 cell lay in the range of 100 to 300 µM. Also, the “Judgment: number” value in data set [2] is on record as “◯ (The number of specimens confirming bacteria was 6 to 9: ◯)”. The “Judgment: OD620 after culture” value in data set [3] is reported as “◯ (◯: OD620 is 0.3-0.6)”.
`OC[C@H]1O[C@@H](Oc2ccc(O)cc2)[C@H](O)[C@@H](O)[C@@H]1O` [Arbutin]: the IC40 with B16 melanoma 4A5 cell was 30 to 100 µM. The “Coloration, 2 weeks after” value in data set [1] was “◯ (◯: total points of 10 panelists is 22 or more)”. The “Coloration, 4 weeks after” value in data set [1] (4 weeks) is “Δ (Δ: total points of 10 panelists is 15 to 21)”.
For `O=c1cc(CO)occ1O` [Kojic acid], in the data set with B16 melanoma 4A5 cell, the IC40 was not below 300 µM. Moreover, in data set [1], the “Coloration, 2 weeks after” value was “◯ (◯: total points of 10 panelists is 22 or more)”. In data set [1] (4 weeks), the “Coloration, 4 weeks after” value is listed as “Δ (Δ: total points of 10 panelists is 15 to 21)”.
For `CCOCC(O)COc1ccc(C(C)(C)C)cc1` (stereo not shown) [Example 3 (1-O-ethyl-2-hydroxy-3-(4′-tert-butylphenoxy)propy] [1-O-ethyl-2-hydroxy-3-(4′-tert-butylphenoxy)propyl], the “Judgment: sample concentration showing the melanogenesis inhibiting ratio of 40% or more” value with B16 melanoma 4A5 cell is “⊚⊚ (≦30 μmol/L: ⊚⊚)”. In addition, in data set [2], the “Judgment: number” value is “⊚ (The number of specimens confirming bacteria was 5 or less: ⊚)”. The “Judgment: OD620 after culture” value in data set [3] is recorded as “◯ (◯: OD620 is 0.3-0.6)”.
As for `CC(C)(C)c1ccc(OCC(O)CO)cc1` (stereo not shown) [Example 1, 1,2-di-hydroxy-3-(4′-tert-butylphenoxy)propyl], in the data set on B16 melanoma 4A5 cell, the “Judgment: sample concentration showing the melanogenesis inhibiting ratio of 40% or more” value is “⊚⊚ (≦30 μmol/L: ⊚⊚)”. Besides, the “Judgment: number” value in data set [2] is “⊚ (The number of specimens confirming bacteria was 5 or less: ⊚)”. For the same compound, the “Judgment: OD620 after culture” value in data set [3] is recorded as “⊚⊚”. Moreover, in data set [1], the “Coloration, 2 weeks after” value was “◯ (◯: total points of 10 panelists is 22 or more)”. Besides, the “Coloration, 4 weeks after” value in data set [1] (4 weeks) is listed as “◯ (◯: total points of 10 panelists is 22 or more)”. In data set [1] (summary of Table 8, 50° C., 4 weeks), the “Stability in terms of coloration (in words)” value is reported as “excellent in stability in terms of coloration”.
For `Cc1cc(C(C)(C)C)c(OCC(O)CO)c(C(C)(C)C)c1` (stereo not shown) [Example 22, 1,2-di-hydroxy-3-(2′,6′-di-tert-butyl-4′-methylphenoxy) propyl], the IC40 in the data set with B16 melanoma 4A5 cell was not above 30 µM. Moreover, the “Judgment: OD620 after culture” value in data set [3] is given as “⊚⊚”.
In the same order, the values of `CCC(C)c1cccc(C(C)CC)c1OCC(O)CO` (stereo not shown) [Example 19, 1,2-di-hydroxy-3-(2′,6′-di-sec-butylphenoxy)propyl] are not above 30 µM and “⊚⊚”.
For the compound `CC(C)(c1ccccc1)c1ccc(OCC(O)CO)cc1` (stereo not drawn) [Example 16, 1,2-di-hydroxy-3-(4′-α-cumylphenoxy)propyl], the IC40 in the data set with B16 melanoma 4A5 cell fell in the range of 30 to 100 µM. Further, in data set [3], the “Judgment: OD620 after culture” value was “⊚ (⊚: OD620 is 0.3 or less)”.

The values are drawn from US20150238401A1, “PROPYL-PHENYL-ETHER DERIVATIVE, AND MELANOGENESIS INHIBITOR, SKIN-LIGHTENING AGENT, ANTIMICROBIAL AGENT AND COSMETIC CONTAINING SAID PROPYL-PHENYL-ETHER DERIVATIVE” (SEIWA KASEI COMPANY, LIMITED, priority 2012, published 2015).
